Assay results published in the NIST ThermoML archive (doi:10.1021/acs.jced.8b01135).
Numbers after ± are expanded uncertainties.

Assay: xn = mol fraction of the nth substance listed
Settings: 102 kPa, Liquid; for mass density: Vibrating tube method; for viscosity: Concentric cylinders viscometry; for speed of sound: Frequency=3 MHz, Single path-length method

CCCCCCCCCCC1CCCCC1 [decylcyclohexane] + CCCCCCCCCCCC
Settings | mass density, 303.15 K [kg/m3] | mass density, 313.15 K [kg/m3] | mass density, 323.15 K [kg/m3] | mass density, 333.15 K [kg/m3] | speed of sound, 313.15 K [m/s] | speed of sound, 323.15 K [m/s] | speed of sound, 333.15 K [m/s] | viscosity, 313.15 K [mPa·s] | viscosity, 323.15 K [mPa·s] | viscosity, 333.15 K [mPa·s]
x1 = 0.1003 | – | 742.75 ± 0.71 | 735.51 ± 0.71 | 728.24 ± 0.71 | 1234.1 ± 0.8 | 1197.2 ± 0.8 | 1161.3 ± 0.8 | 1.21 ± 0.02 | 1.04 ± 0.02 | 0.904 ± 0.021
x1 = 0.2194 | – | 752.43 ± 0.71 | 745.28 ± 0.71 | 738.08 ± 0.71 | 1248.9 ± 0.8 | 1212.3 ± 0.8 | 1176.5 ± 0.8 | 1.39 ± 0.02 | 1.19 ± 0.02 | 1.02 ± 0.02
x1 = 0.3002 | – | 758.71 ± 0.71 | 751.59 ± 0.71 | 744.46 ± 0.71 | 1258.7 ± 0.8 | 1222.1 ± 0.8 | 1186.5 ± 0.8 | 1.49 ± 0.02 | 1.29 ± 0.02 | 1.11 ± 0.02
x1 = 0.4004 | – | 766.19 ± 0.71 | 759.13 ± 0.71 | 752.05 ± 0.71 | 1271 ± 0.9 | 1234.7 ± 0.9 | 1199.1 ± 0.9 | 1.67 ± 0.02 | 1.41 ± 0.02 | 1.2 ± 0.02
x1 = 0.4999 | – | 773.32 ± 0.71 | 766.31 ± 0.71 | 759.29 ± 0.71 | 1282.2 ± 0.9 | 1246 ± 0.9 | 1210.6 ± 0.9 | 1.87 ± 0.02 | 1.56 ± 0.02 | 1.32 ± 0.02
x1 = 0.5993 | 787.1 ± 0.71 | 780.16 ± 0.71 | 773.2 ± 0.71 | 766.23 ± 0.71 | 1292 ± 0.9 | 1257 ± 0.9 | 1221.8 ± 0.9 | 2.08 ± 0.02 | 1.73 ± 0.02 | 1.46 ± 0.02
x1 = 0.7001 | 793.68 ± 0.71 | 786.78 ± 0.71 | 779.88 ± 0.71 | 772.96 ± 0.71 | 1303.7 ± 0.9 | 1267.7 ± 0.9 | 1232.7 ± 0.9 | 2.33 ± 0.02 | 1.92 ± 0.02 | 1.61 ± 0.02
x1 = 0.8005 | 799.99 ± 0.71 | 793.13 ± 0.71 | 786.28 ± 0.71 | 779.42 ± 0.71 | 1313.9 ± 0.9 | 1278.1 ± 0.9 | 1243.2 ± 0.9 | 2.6 ± 0.02 | 2.13 ± 0.02 | 1.78 ± 0.02
x1 = 0.8991 | 805.95 ± 0.71 | 799.14 ± 0.71 | 792.33 ± 0.71 | 785.51 ± 0.71 | 1323.7 ± 0.9 | 1288 ± 0.9 | 1253.2 ± 0.9 | 2.89 ± 0.03 | 2.35 ± 0.02 | 1.95 ± 0.02
x1 = 1 | 811.78 ± 0.71 | 805.02 ± 0.71 | 798.26 ± 0.71 | 791.49 ± 0.71 | 1332.8 ± 0.9 | 1297.2 ± 0.9 | 1262.7 ± 0.9 | 3.23 ± 0.03 | 2.6 ± 0.02 | 2.15 ± 0.02
